What was measured:
[1] = tested on: rabbit serum obtained by immunizing a rabbit with the SARS-CoV strain Frankfurt 1; format: binding; design: Binding of a rabbit serum to linear peptides / Binding of a rabbit serum to looped peptides / Rabbit serum linear peptides / Rabbit serum looped peptides / Binding of a rabbit serum to linear peptides of protein N of SARS-CoV Urbani (Rabbit serum linear peptides) / Binding of a rabbit serum to looped/cyclic peptides of protein N of SARS-CoV Urbani (Rabbit serum looped peptides): unit not given here
[2] = tested on: recombinant human anti-SARS-CoV antibody 03-018; format: binding; design: Binding of antibody 03-018 to linear peptides of the N protein of SARS-CoV Urbani / Binding of antibody 03-018 to looped/cyclic peptides of the N protein of SARS-CoV Urbani: unit not given here
[3] = tested on: control sera (pooled serum of ten healthy LUMC hospital workers; commercial negative donor pooled serum from the Dutch bloodbank); format: binding, human; design: Binding of Control serum LUMC to linear peptides / Binding of Control serum Blood-bank to linear peptides / Binding of Control serum LUMC to looped peptides / Binding of Control Serum Blood-Bank to Looped peptides / Binding of Control serum LUMC to linear peptides of the protein M of SARS-CoV Urbani / Binding of Control serum Blood-bank to linear peptides of the protein M of SARS-CoV Urbani / Binding of Control serum LUMC to looped peptides of the protein M of SARS-CoV Urbani / Binding of Control Serum Blood-Bank to Looped peptides of the protein M of SARS-CoV Urbani: unit not given here
[4] = tested on: antibodies in sera from SARS patients (sera 1a, 1b, 2, 6, 37, 62, London, SARS-yellow, SARS-green); format: binding, human; design: Binding of serum 6 to linear peptides of protein X1 of SARS-CoV Urbani / Binding of serum 37 to linear peptides of protein X1 of SARS-CoV Urbani / Binding of serum 6 to looped/cyclic peptide (PEPSCAN-ELISA) / Binding of serum 37 to looped/cyclic peptide (PEPSCAN-ELISA) / Binding of serum 37 to looped/cyclic peptides of protein X1 of SARS-CoV Urbani / Binding of serum 6 to linear peptides of protein X2 / Binding of serum 37 to linear peptides of protein X2 / Binding of serum 37 to looped/cyclic peptides of protein X2 of SARS-CoV Urbani / Binding of serum 6 to linear peptides of protein M of SARS-CoV Urbani / Binding of serum 37 to linear peptides of protein M of SARS-CoV Urbani / Binding of serum 6 to looped/cyclic peptides of protein M of SARS-CoV Urbani / Binding of serum 37 to looped/cyclic peptides of protein M of SARS-CoV Urbani / Binding of serum 6 to linear peptides of protein X3 of SARS-CoV Urbani / Binding of serum 37 to linear peptides of protein X3 of SARS-CoV Urbani / Binding of serum 37 to looped/cyclic peptides of protein X3 of SARS-CoV Urbani / Binding of serum 6 to linear peptides of protein X4 of SARS-CoV Urbani / Binding of serum 37 to linear peptides of protein X4 of SARS-CoV Urbani / Binding of serum 37 to looped/cyclic peptides of protein X4 of SARS-CoV Urbani / Binding of serum 6 to linear peptides of protein X5 of SARS-CoV Urbani / Binding of serum 37 to linear peptides of protein X5 of SARS-CoV Urbani / Binding of serum 37 to looped/cyclic peptides of protein X5 of SARS-CoV Urbani / Binding of serum 6 to linear peptides of protein N of SARS-CoV Urbani / Binding of serum 37 to linear peptides of protein N of SARS-CoV Urbani / Binding of serum 6 to linear peptide (PEPSCAN-ELISA) / Binding of serum 1a to looped/cyclic peptides of protein N of SARS-CoV Urbani / Binding of serum 1b to looped/cyclic peptides of protein N of SARS-CoV Urbani / Binding of serum 2 to looped/cyclic peptides of protein N of SARS-CoV Urbani / Binding of serum 6 to looped/cyclic peptides of protein N of SARS-CoV Urbani / Binding of serum 37 to looped/cyclic peptides of protein N of SARS-CoV Urbani / Binding of serum 62 to looped/cyclic peptides of protein N of SARS-CoV Urbani / Binding of serum London to looped/cyclic peptides of protein N of SARS-CoV Urbani / Binding of serum SARS-green to looped/cyclic peptides of protein N of SARS-CoV Urbani: unit not given here

Row | Sequence | Binding of a rabbit serum to linear peptides of protein N of SARS-CoV Urbani (Rabbit serum linear peptides) [1] | Binding of a rabbit serum to looped/cyclic peptides of protein N of SARS-CoV Urbani (Rabbit serum looped peptides) [1] | Binding of antibody 03-018 to linear peptides of the N protein of SARS-CoV Urbani [2] | Binding of antibody 03-018 to looped/cyclic peptides of the N protein of SARS-CoV Urbani [2] | Binding of serum 1a to linear peptides of protein N of SARS-CoV Urbani [4] | Binding of serum 1a to looped/cyclic peptides of protein N of SARS-CoV Urbani [4] | Binding of serum 1b to linear peptides of protein N of SARS-CoV Urbani [4] | Binding of serum 1b to looped/cyclic peptides of protein N of SARS-CoV Urbani [4] | Binding of serum 2 to linear peptides of protein N of SARS-CoV Urbani [4] | Binding of serum 2 to looped/cyclic peptides of protein N of SARS-CoV Urbani [4] | Binding of serum 6 to linear peptides of protein N of SARS-CoV Urbani [4] | Binding of serum 6 to looped/cyclic peptides of protein N of SARS-CoV Urbani [4] | Binding of serum 37 to linear peptides of protein N of SARS-CoV Urbani [4] | Binding of serum 37 to looped/cyclic peptides of protein N of SARS-CoV Urbani [4] | Binding of serum 62 to linear peptides of protein N of SARS-CoV Urbani [4] | Binding of serum 62 to looped/cyclic peptides of protein N of SARS-CoV Urbani [4] | Binding of serum London to linear peptides of protein N of SARS-CoV Urbani [4] | Binding of serum London to looped/cyclic peptides of protein N of SARS-CoV Urbani [4] | Binding of serum SARS-green to linear peptides of protein N of SARS-CoV Urbani [4] | Binding of serum SARS-green to looped/cyclic peptides of protein N of SARS-CoV Urbani [4] | also measured
1 | LPAADMDDFSRQLQN | 0.2 | 0.2 | 0.1 | 0.2 | 0.2 | 0.3 | 0.2 | 0.2 | 0.4 | 0.5 | 0.3 | 0.4 | 0.7 | 0.6 | 0.6 | 0.4 | 0.5 | 0.3 | 0.2 | 0.5 | Control Serum Blood-Bank Looped peptides [3]: 0.4; Control serum Blood-bank linear peptides [3]: 0.7; Control serum LUMC linear peptides [3]: 0.7; Control serum LUMC looped peptides [3]: 0.4; Binding of serum SARS-yellow to linear peptides of protein N of SARS-CoV Urbani [4]: 0.6; Binding of serum SARS-yellow to looped/cyclic peptides of protein N of SARS-CoV Urbani [4]: 0.6
2 | APSASAFFGMSRIGM | 0.1 | 0.4 | 0.1 | 0.2 | 0.2 | 0.4 | 0.1 | 0.3 | 0.2 | 0.7 | 0.1 | 0.4 | 0.5 | 0.7 | 0.5 | 0.9 | 0.6 | 2.0 | 0.2 | 0.5 | Control Serum Blood-Bank Looped peptides [3]: 0.8; Control serum Blood-bank linear peptides [3]: 0.7; Control serum LUMC linear peptides [3]: 0.5; Control serum LUMC looped peptides [3]: 0.6; Binding of serum SARS-yellow to linear peptides of protein N of SARS-CoV Urbani [4]: 0.4; Binding of serum SARS-yellow to looped/cyclic peptides of protein N of SARS-CoV Urbani [4]: 0.6
3 | RGGDGKMKELSPRWY | 0.1 | 0.4 | 0.1 | 0.2 | 0.2 | 0.3 | 0.1 | 0.2 | 0.2 | 0.4 | 0.2 | 0.3 | 0.7 | 0.5 | 0.6 | 0.4 | 0.5 | 0.4 | 0.3 | 0.3 | Binding of Control Serum Blood-Bank to Looped peptides [3]: 0.6; Binding of Control serum Blood-bank to linear peptides [3]: 0.6; Binding of Control serum LUMC to linear peptides [3]: 0.6; Binding of Control serum LUMC to looped peptides [3]: 0.6; Binding of serum SARS-yellow to linear peptides of protein N of SARS-CoV Urbani [4]: 0.6; Binding of serum SARS-yellow to looped/cyclic peptides of protein N of SARS-CoV Urbani [4]: 0.4
4 | EASLPYGANKEGIVW | 0.1 | 0.3 | 0.1 | 0.2 | 0.2 | 0.3 | 0.1 | 0.2 | 0.2 | 0.4 | 0.1 | 0.2 | 0.5 | 0.7 | 0.5 | 0.6 | 0.4 | 0.5 | 0.2 | 0.5 | Binding of Control Serum Blood-Bank to Looped peptides [3]: 0.7; Binding of Control serum Blood-bank to linear peptides [3]: 0.8; Binding of Control serum LUMC to linear peptides [3]: 0.6; Binding of Control serum LUMC to looped peptides [3]: 0.6; Binding of serum SARS-yellow to linear peptides of protein N of SARS-CoV Urbani [4]: 0.6; Binding of serum SARS-yellow to looped/cyclic peptides of protein N of SARS-CoV Urbani [4]: 0.2
